This note sets out measurements from patent US8716289B2, “Carbamate derivatives of alkyl-heterocycles, preparation thereof and therapeutic use thereof” (Sanofi, priority 2008, dated 2014).

Series [1] deals with T1, enzyme FAAH (Fatty Acid Amide Hydrolase) (Mus musculus, UniProt O08914).
T1 construct: The membrane homogenates are prepared extemporaneously by homogenizing the tissues; from tissue; host or cells: mouse brain (minus the cerebellum), membrane homogenate
T1 sequence (O08914 1-579): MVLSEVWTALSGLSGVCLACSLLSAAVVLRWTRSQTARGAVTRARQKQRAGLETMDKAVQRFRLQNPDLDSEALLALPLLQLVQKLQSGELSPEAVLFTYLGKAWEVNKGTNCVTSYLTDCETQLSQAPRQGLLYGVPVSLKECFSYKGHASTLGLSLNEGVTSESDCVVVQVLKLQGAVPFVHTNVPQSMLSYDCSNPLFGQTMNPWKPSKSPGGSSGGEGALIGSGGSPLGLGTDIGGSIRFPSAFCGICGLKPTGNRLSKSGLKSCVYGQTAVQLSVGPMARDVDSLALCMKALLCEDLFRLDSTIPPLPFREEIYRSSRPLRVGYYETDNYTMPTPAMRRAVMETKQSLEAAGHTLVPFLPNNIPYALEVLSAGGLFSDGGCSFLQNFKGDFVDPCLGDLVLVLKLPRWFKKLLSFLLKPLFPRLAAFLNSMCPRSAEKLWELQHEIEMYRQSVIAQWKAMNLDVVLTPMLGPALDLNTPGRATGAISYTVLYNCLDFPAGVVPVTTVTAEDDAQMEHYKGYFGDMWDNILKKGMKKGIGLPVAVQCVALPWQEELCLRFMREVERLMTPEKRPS
Nature of the series: FAAH radioenzymatic test, hydrolysis of anandamide [ethanolamine 1-3H] (Protocol 1). The following applies: mouse brain membrane homogenate, anandamide 10 μM, preincubation 20 min at 25° C. It is filed as biochemical. As for the experimental part:
Thus, mouse brains (minus the cerebellum) are removed and stored at −80° C. The membrane homogenates are prepared extemporaneously by homogenizing the tissues using a Precellys® machine in reaction buffer (10 mM Tris-HCl, pH=8, 150 mM NaCl and 1 mM ethylenediaminetetraacetic acid (EDTA)). The enzymatic reaction is performed in 96-well Multiscreen filtration plates in a final volume of 70 μL. Reaction buffer supplemented with fatty acid-free bovine serum albumin (BSA, 1 mg/ml) is used for the enzymatic reaction and the dilution of the compounds and of the anandamide [ethanolamine 1-^3H]. The reaction buffer containing BSA (43 μL/well), the diluted test compounds at different concentrations (7 μL/well containing 1% DMSO) and the membrane preparation (10 μL/well, i.e. […] of tissue per test) are successively added to the wells. After preincubation for 20 minutes of the compounds with the enzyme at 25° C., the reaction is started by adding anandamide [ethanolamine 1-^3H]. (Specific activity of 15-20 Ci/mmol) diluted with cold anandamide (10 μL/well, final concentration of 10 μM, 0.01 ρCi per test). After incubation for 20 minutes at 25° C., the enzymatic reaction is stopped by adding a […] solution of active charcoal prepared in 1.5M NaCl buffer and 0.5 M HCl (50 μL/well). The mixture is stirred for 10 minutes and the aqueous phase containing the ethanolamine [1-^3H] is then recovered by filtration under vacuum and counted by liquid scintillation.

For a further series, the system named is male OF1 mice. Description: test of analgesia: PBQ-induced abdominal stretching. To be noted: 30 mg/kg p.o. at 120 minutes. It is filed as in vivo, mouse. As for the experimental part:
The in vivo activity of the compounds of the invention was evaluated in a test of analgesia.
Thus, the intraperitoneal (i.p.) administration of PBQ (phenylbenzoquinone, 2 mg/kg in 0.9% sodium chloride solution containing 5% ethanol) to male OF1 mice weighing 25 to 30 g causes abdominal stretching, on average 30 torsions or contractions within a period of 5 to 15 minutes after injection. The test compounds are administered orally (p.o.) or intraperitoneally (i.p.) suspended in Tween 80 at 0.5%, 60 minutes or 120 minutes before the administration of PBQ. Under these conditions, the compounds of the invention that are the most powerful reduce by 30% to 80% the number of stretches induced with PBQ, over a dose range of between 1 and 30 mg/kg.

Series [2] addresses T1, enzyme FAAH (Fatty Acid Amide Hydrolase). Description: FAAH fluorescent enzymatic test, hydrolysis of AAMC (Protocol 2). It is filed as biochemical. To be noted: mouse brain homogenate, AAMC 10 μM, preincubation 20 min at 25° C. As for the experimental part: Thus, mouse brains (minus the cerebellum) are withdrawn and stored at −80° C. The brain homogenates are prepared extemporaneously by homogenizing the tissues using a Precellys® machine in reaction buffer (10 mM Tris-HCl, pH=8, 150 mM NaCl and 1 mM ethylenediaminetetraacetic acid (EDTA)). The enzymatic reaction is performed in black polystyrene 384-well plates in a final volume of 50 μL. Reaction buffer supplemented with fatty acid-free bovine serum albumin (BSA, 1 mg/ml) is used for the enzymatic reaction, the dilution of the compounds and the dilution of the AAMC. Reaction buffer containing the BSA (25 μL/well), the diluted test compounds at different concentrations (5 μL/well containing 1% DMSO) and the membrane preparation (10 μL/well, i.e. 200 μg of tissue per test) are successively added to the wells. After preincubation for 20 minutes of the compounds with the enzyme at 25° C., the reaction is started by adding 10 μL of substrate per well (AAMC, final concentration of 10 μM). After incubation for 40 minutes, the aminomethyl coumarin (AMC) produced is measured by fluorescent counting (Envision plate reader).

Each structure is given as a SMILES string.

Take `NC(=O)c1cc(COC(=O)NCCC2CCN(c3ccc4cc(Cl)ccc4n3)CC2)on1` [Compound 1, 3-carbamoylisoxazol-5-ylmethyl 2-[1-(6-chloroquinolin-2-yl)piperidin-4-yl]ethylcarbamate]: the melting point is 220 to 222 °C. This compound also came in with an IC50 in series [1] of 1 nM. Also, the “reduction of the number of stretches induced with PBQ” value in the series on male OF1 mice is 55%.

Take `Cn1ncnc1COC(=O)NCCC1CCN(c2ccc3cc(Cl)ccc3n2)CC1` [Compound 2, 2-methyl-2H-[1,2,4]triazol-3-ylmethyl 2-[1-(6-chloroquinolin-2-yl)piperidin-4-yl]ethylcarbamate]: the melting point was 122 to 124 °C. The compound further yielded an IC50 in series [1] of 40 nM.

As for `CCc1noc(COC(=O)NCCC2CCN(c3ccc(-c4ccc(F)cc4)cn3)CC2)n1` [Compound 5, 3-ethyl[1,2,4]oxadiazol-5-ylmethyl 2-[5′-(4-fluorophenyl)-3,4,5,6-tetrahydro-2H-[1,2′]bipyridinyl-4-yl]-ethylcarbamate], the melting point lay within 110 to 112 °C. Besides, in series [1], the IC50 worked out at 2 nM.

In turn, `O=C(NCCC1CCN(c2ccc(-c3ccc(F)cc3)cn2)CC1)OCc1csnn1` [Compound 9, [1,2,3]thiadiazol-4-ylmethyl 2-[5′-(4-fluorophenyl)-3,4,5,6-tetrahydro-2H-[1,2′]bipyridinyl-4-yl]ethylcarbamate] showed a melting point of 139 to 141 °C. Further, the IC50 in series [1] turned out to be 2 nM.

`O=C(NCCC1CCN(c2ccc3cc(Cl)ccc3n2)CC1)OCc1nnc(-c2ccc(F)cc2)o1` [Compound 12, 5-(4-fluorophenyl)[1,3,4]oxadiazol-2-ylmethyl 2-[1-(6-chloroquinolin-2-yl)piperidin-4-yl]ethylcarbamate] gave a melting point of 169 to 170 °C. The midpoint of inhibition in series [1], the IC50, lay at 47 nM.

`NC(=O)c1cc(COC(=O)NCCC2CCN(c3ccc(-c4ccc(F)cc4)cn3)CC2)on1` [Compound 19, 3-carbamoylisoxazol-5-ylmethyl 2-[5′-(4-fluorophenyl)-3,4,5,6-tetrahydro-2H-[1,2′]bipyridinyl-4-yl]ethylcarbamate] yielded a melting point of 202 to 204 °C. Moreover, the 50% inhibitory concentration (IC50) in series [1] was found to be 1 nM. The “reduction of the number of stretches induced with PBQ” value with male OF1 mice was 30%.

Consider `CNC(=O)c1cc(COC(=O)NCCC2CCN(c3ccc(-c4ccc(F)cc4)cc3)CC2)on1` [Compound 29, 3-methylcarbamoylisoxazol-5-ylmethyl 2-[1-(4′-fluorobiphenyl-4-yl)piperidin-4-yl]ethylcarbamate], for which the melting point lay in the range of 212 to 215 °C. The compound also registered an IC50 in series [2] of 0.7 nM.

The compound `NC(=O)c1cc(COC(=O)NCCC2CCN(c3nccc(C(F)(F)F)n3)CC2)on1` [Compound 38] came in with an IC50 in series [1] of 2 nM.

In series [1], `NC(=O)c1cc(COC(=O)NCCC2CCN(c3ccc(-c4ccc(F)cc4)nn3)CC2)on1` [Compound 41] registered an IC50 of 0.6 nM.

In the case of `CN1CCN(C(=O)c2cc(COC(=O)NCCC3CCN(c4ccc(-c5ccc(F)cc5)cn4)CC3)on2)CC1` [Compound 46], the IC50 in series [1] worked out at 16 nM.

For `Cn1ccc(COC(=O)NCCCC2CCN(c3nccc(C(F)(F)F)n3)CC2)n1` [Compound 52], in series [1], the IC50 came to 28 nM.

On to `CCC1(CCNC(=O)OCc2cc(C(=O)NC)no2)CCN(c2cnc3cc(Cl)ccc3n2)CC1` [Compound 64], for which, in series [1], 3 nM corresponded to half-maximal inhibition (IC50).
